Measured values from ChEMBL document CHEMBL4340570, “Design, synthesis, and biological evaluation of novel 4-oxobenzo[d]1,2,3-triazin-benzylpyridinum derivatives as potent anti-Alzheimer agents” (Bioorg Med Chem, 2019).
Calls of active or inactive are those of the source. The rule behind the calls is not given here.

Assays:
[1] = tested on: PC-12; experiment: Neuroprotective activity in rat PC12 cells assessed as protection against H2O2-induced cytotoxicity at 10 uM pre-incubated for 3 hrs before H2O2 addition and measured after 12 hrs by MTT assay; type: functional, cell-based
[2] = biological target: Cholinesterase (Equus caballus, UniProt P81908); experiment: Inhibition of equine serum BuChE pre-incubated for 5 mins before butyrylthiocholine iodide substrate addition and measured after 15 mins by Ellman's method
[3] = biological target: T1, Acetylcholinesterase (Electrophorus electricus, UniProt O42275); experiment: Inhibition of electric eel AChE pre-incubated for 5 mins before acetylthiocholine iodide substrate addition and measured after 15 mins by Ellman's method
[4] = tested on: PC-12; experiment: Neuroprotective activity in rat PC12 cells assessed as protection against H2O2-induced cytotoxicity at 1 uM pre-incubated for 3 hrs before H2O2 addition and measured after 12 hrs by MTT assay; type: functional, cell-based
[5] = tested on: PC-12; experiment: Neuroprotective activity in rat PC12 cells assessed as protection against H2O2-induced cytotoxicity at 100 uM pre-incubated for 3 hrs before H2O2 addition and measured after 12 hrs by MTT assay; type: functional, cell-based
[6] = biological target: Beta-secretase 1 (Homo sapiens) (UniProt P56817); experiment: Inhibition of recombinant human BACE1 (1 to 460 residues) expressed in baculovirus-infected insect cells at 50 uM using Rh-EVNLDAEFK-quencher as substrate measured after 90 mins by FRET assay relative to control
[7] = biological target: T1, Acetylcholinesterase; experiment: Mixed type inhibition of electric eel AChE pre-incubated for 5 mins before acetylthiocholine iodide substrate addition and measured after 15 mins by modified Ellman's method baaed Lineweaver-Burk plot analysis
[8] = biological target: Beta-secretase 1 (Homo sapiens) (UniProt P56817); experiment: Inhibition of recombinant human BACE1 (1 to 460 residues) expressed in baculovirus-infected insect cells at 10 uM using Rh-EVNLDAEFK-quencher as substrate measured after 90 mins by FRET assay relative to control

Sequence of Cholinesterase (P81908 whole entry): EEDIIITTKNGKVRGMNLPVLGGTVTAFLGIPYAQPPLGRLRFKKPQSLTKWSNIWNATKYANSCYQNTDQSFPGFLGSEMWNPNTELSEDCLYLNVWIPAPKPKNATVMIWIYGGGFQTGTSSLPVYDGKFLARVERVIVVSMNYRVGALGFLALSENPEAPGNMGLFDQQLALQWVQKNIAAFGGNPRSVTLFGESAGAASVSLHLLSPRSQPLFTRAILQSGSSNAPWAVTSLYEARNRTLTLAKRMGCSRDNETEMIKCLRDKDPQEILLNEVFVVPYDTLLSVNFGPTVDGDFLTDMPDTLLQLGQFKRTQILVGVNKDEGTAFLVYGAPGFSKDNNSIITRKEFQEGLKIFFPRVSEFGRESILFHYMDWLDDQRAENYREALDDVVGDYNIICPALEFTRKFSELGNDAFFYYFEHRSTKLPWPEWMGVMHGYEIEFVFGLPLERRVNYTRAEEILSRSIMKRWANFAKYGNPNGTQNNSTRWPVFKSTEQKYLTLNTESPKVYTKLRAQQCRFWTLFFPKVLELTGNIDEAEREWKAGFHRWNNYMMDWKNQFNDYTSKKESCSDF
T1 sequence (O42275 whole entry): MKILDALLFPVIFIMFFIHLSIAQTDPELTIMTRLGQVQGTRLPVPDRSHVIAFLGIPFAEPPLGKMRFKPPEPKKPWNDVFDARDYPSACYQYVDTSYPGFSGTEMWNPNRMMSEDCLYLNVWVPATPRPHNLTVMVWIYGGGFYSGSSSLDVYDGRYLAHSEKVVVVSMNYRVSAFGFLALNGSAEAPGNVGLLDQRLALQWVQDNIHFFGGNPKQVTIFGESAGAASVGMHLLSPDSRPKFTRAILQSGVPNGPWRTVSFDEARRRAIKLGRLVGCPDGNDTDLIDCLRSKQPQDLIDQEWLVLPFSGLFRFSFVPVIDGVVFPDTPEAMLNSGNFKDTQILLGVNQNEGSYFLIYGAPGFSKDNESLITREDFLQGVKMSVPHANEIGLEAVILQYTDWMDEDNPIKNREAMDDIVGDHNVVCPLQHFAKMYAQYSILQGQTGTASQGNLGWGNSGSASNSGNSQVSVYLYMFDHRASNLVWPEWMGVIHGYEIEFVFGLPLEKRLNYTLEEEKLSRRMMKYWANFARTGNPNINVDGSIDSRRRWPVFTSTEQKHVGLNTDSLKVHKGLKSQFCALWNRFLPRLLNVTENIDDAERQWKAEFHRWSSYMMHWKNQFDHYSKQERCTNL
Sequence of Beta-secretase 1 (Homo sapiens) (P56817 whole entry, the tested form may be a part): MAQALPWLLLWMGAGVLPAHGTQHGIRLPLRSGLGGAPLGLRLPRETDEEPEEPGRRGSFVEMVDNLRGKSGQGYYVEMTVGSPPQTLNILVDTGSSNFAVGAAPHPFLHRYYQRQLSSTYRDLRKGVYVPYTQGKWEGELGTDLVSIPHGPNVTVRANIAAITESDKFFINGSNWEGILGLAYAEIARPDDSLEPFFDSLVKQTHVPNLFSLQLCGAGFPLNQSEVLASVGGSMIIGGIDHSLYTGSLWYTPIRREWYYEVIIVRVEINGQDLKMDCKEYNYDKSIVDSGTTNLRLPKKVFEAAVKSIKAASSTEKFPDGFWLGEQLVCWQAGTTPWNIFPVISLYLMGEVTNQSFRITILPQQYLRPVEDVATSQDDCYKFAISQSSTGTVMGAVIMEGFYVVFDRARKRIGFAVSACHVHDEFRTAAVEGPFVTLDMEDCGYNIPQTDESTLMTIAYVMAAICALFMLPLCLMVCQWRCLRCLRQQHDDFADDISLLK

| Structure (SMILES) | IC50 [2] [µM] | IC50 [3] [µM] | further results |
| --- | --- | --- | --- |
| O=c1c(O)c(-c2ccc(O)c(O)c2)oc2cc(O)cc(O)c12 | – | – | Activity [1]: Active |
| O=c1c2ccccc2nnn1Cc1ccc[n+](Cc2ccc(F)cc2)c1 | 23.8 | 0.15 | Activity [4]: Active |
| O=c1c2ccccc2nnn1Cc1ccc[n+](Cc2ccccc2Br)c1 | 16.8 | 0.15 | Activity [1]: Active; Activity [5]: Active; Activity [4]: Active |
| O=c1c2ccccc2nnn1Cc1ccc[n+](Cc2ccccc2)c1 | 31.2 | 0.17 | – |
| O=c1c2ccccc2nnn1Cc1cc[n+](Cc2ccccc2)cc1 | 75.2 | 1.34 | – |
| O=c1c2ccccc2nnn1Cc1cc[n+](Cc2ccccc2F)cc1 | 64.6 | 1.68 | – |
| O=c1c2ccccc2nnn1Cc1ccc[n+](Cc2cccc(Br)c2)c1 | 14.7 | 0.3 | – |
| O=c1c2ccccc2nnn1Cc1ccc[n+](Cc2c(Cl)cccc2Cl)c1 | 21.6 | 0.73 | – |
| O=c1c2ccccc2nnn1Cc1cc[n+](Cc2ccccc2[N+](=O)[O-])cc1 | 18.2 | 1.3 | – |
| O=c1c2ccccc2nnn1Cc1ccc[n+](Cc2ccccc2F)c1 | 23.9 | 0.29 | – |
| O=c1c2ccccc2nnn1Cc1ccc[n+](Cc2ccc(Br)cc2)c1 | 5.8 | 0.84 | – |
| Cc1ccccc1C[n+]1cccc(Cn2nnc3ccccc3c2=O)c1 | 13.7 | 0.2 | – |
| O=c1c2ccccc2nnn1Cc1ccc[n+](Cc2ccccc2[N+](=O)[O-])c1 | 17.5 | 0.1 | inhibition [6]: 61.2%; Ki [7]: 0.017 µM; inhibition [8]: 37%; Activity [5]: Active |
| O=c1c2ccccc2nnn1Cc1cc[n+](Cc2ccc(Br)cc2)cc1 | 51.8 | 1.18 | – |
| O=c1c2ccccc2nnn1Cc1cc[n+](Cc2ccccc2Cl)cc1 | 55 | 1.37 | – |
| O=c1c2ccccc2nnn1Cc1cc[n+](Cc2ccc(F)cc2)cc1 | 70.7 | 1.64 | – |
| O=c1c2ccccc2nnn1Cc1ccc[n+](Cc2cccc(F)c2)c1 | 27.8 | 0.17 | – |
| O=c1c2ccccc2nnn1Cc1ccc[n+](Cc2ccc([N+](=O)[O-])cc2)c1 | 17.2 | 0.16 | – |
